*1 amine or outer side, *2 acyl side, *3 side chain or, on linkers, in order; H or OH if unused. Where a SMILES comes first, the peptide text is derived from it. Side-chain parts run from the residue outwards. [ ]: non-standard residue; d: D form. The star is where a group is joined. C20 diacid = O=C(O)CCCCCCCCCCCCCCCCCCC(=O)*; γGlu = O=C(O)[C@H](CCC(=O)[*:2])N[*:1]; εLys = N[C@@H](CCCCN[*:1])C(=O)[*:2]; αMeL = CC(C)C[C@](C)(N)C(=O)O; AEEA = NCCOCCOCC(=O)O
What was measured:
[1] = target: T1, human CRHR2 (Homo sapiens, UniProt Q13324); assay: Human CRHR2 cAMP assay (HTRF) in HEK293 cells stably expressing human CRHR2; format: cell-based; settings: HEK293 cells overexpressing human CRHR2; relative EC50, maximum 10 nM human UCN2; mean ± SE; read-out: hCRHR2 cAMP EC50 (pM, ± SE)
T1 construct: expressed in transfected cells
T1 sequence (Q13324 1-438 isoform Q13324-2): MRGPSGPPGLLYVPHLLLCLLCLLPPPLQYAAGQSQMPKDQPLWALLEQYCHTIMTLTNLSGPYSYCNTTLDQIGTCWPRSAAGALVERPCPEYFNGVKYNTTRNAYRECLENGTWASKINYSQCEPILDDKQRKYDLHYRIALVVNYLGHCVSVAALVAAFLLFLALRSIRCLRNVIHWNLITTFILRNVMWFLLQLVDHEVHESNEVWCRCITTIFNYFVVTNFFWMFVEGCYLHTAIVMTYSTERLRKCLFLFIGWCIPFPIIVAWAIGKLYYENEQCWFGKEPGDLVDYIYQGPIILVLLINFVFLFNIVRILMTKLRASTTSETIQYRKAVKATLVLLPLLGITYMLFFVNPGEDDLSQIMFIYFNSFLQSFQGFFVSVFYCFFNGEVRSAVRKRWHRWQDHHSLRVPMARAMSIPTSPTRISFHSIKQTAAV
Procedure, shortened: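 HEK293 cells stably expressing human CRHR1 (25,000/well) or CRHR2b (5,000/well) were treated with peptides in MEM with 0.1% casein, 5 mM HEPES pH 7.4 and 0.25 mM IBMX. Incubation was 1 h at 37 °C for CRHR1 and 30 min at room temperature for CRHR2. cAMP was measured by HTRF (665/620 nm) against a per-experiment cAMP standard curve.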

[2] = target: T2, human CRHR1 (Homo sapiens, UniProt P34998); assay: Human CRHR1 cAMP assay (HTRF) in HEK293 cells stably expressing human CRHR1; format: cell-based; settings: HEK293 cells overexpressing human CRHR1; relative EC50, maximum 66 nM human UCN1; mean ± SE; read-out: hCRHR1 cAMP EC50 (pM, ± SE)
T2 construct: expressed in transfected cells
T2 sequence (P34998 24-415): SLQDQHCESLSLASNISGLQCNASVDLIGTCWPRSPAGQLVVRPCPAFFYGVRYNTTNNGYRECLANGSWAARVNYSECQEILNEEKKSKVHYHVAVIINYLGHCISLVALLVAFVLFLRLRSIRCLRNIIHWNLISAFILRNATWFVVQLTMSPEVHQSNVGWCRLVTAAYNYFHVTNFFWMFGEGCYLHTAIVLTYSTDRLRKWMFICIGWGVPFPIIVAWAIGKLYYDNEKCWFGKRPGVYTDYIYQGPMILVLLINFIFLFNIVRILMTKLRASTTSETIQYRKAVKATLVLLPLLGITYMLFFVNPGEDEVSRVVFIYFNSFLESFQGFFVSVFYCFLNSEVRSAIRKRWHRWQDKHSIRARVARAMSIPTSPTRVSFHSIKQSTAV
Procedure: The corticotropin-releasing hormone (CRH) receptor 1 and 2 (CRHR1 and CRHR2) are GPCRs that were functionally coupled to Gs proteins. Stimulation of these receptors results in an increased production of intracellular cAMP, which can be detected using standard in vitro technologies. In vitro activity of peptides was measured by the amount of cAMP formed in human CRHR1 and CRHR2 overexpressed cells.
Human CRHR1 and CRHR2 receptors were stably expressed in human embryonic kidney cells (HEK293) under control of a pcDNA expression vector. The HEK293 cell line was cultured in DMEM 1× (Gibco, 93-0152DK) supplemented with 10% FBS, 1 mM sodium pyruvate, 1×MEM NEAA, 1× GlutaMAX and 10 mM HEPES. The plasmids of human CRHR1-pQCXIP (T7364) and human CRHR2b-R2683puro (T16761) DNA were transfected into HEK293 cells using Lipo fectAMINE 3000 Transfection reagent (Invitrogen, L3000001). After 20 days under selection, the mRNA levels from different clones were measured to confirm the expression of human CRHR1 and CRHR2 genes. To determine the function of over-expressed CRHR cells, the intracellular cAMP levels in response to human UCN1 and UCN2 were measured and compared to the expression of CRHR1 and CRHR2 mRNA in each clone.
Human CRHR1 cells were cultured in DMEM 1× (Gibco, 93-0152DK) supplemented with 10% FBS, 1 mM sodium pyruvate, 1×MEM NEAA, 1×GlutaMAX, 10 mM HEPES, and 800 μg/ml G418. Human CRHR2 cells were cultured at the same media (DMEM 1×, 10% FBS, 1 mM sodium pyruvate, 1×MEM NEAA, 1×GlutaMAX, 10 mM HEPES) in the presence of 0.5 ug/mL puromycin. Cultured cells were grown to 90% confluency and harvested. The cells were frozen at 10×10e6/ml in a mixture of […] fetal bovine serum plus 7% DMSO and stored in liquid nitrogen until use.
On the day of the assay, the frozen cells were thawed and diluted in assay buffer (Phenol Red free MEM (Corning, 17-305-CV, lot #32121010), 0.1% Casein (Sigma C4765, lot #SLCG2120), 5 mM HEPES pH 7.4 containing 0.25 mM IBMX). 10 ul of human CRHR1 cells (25,000 cells) or 10 μL of human CRHR2 cells (5,000 cells) were dispensed into each well of white poly-D-lysine coated 384-well plates (Corning cat #354661). Test compounds diluted in DMSO were added (200 nL/well) in a 1:3 dilution series using ECHO acoustic liquid handler (Beckman). The mixture of cells and test compounds were incubated at 37° C. for 1 hour for the hCRHR1 plate, while the CRHR2 plates were incubated at room temperature for 30 min.
The amount of intracellular cAMP was quantitated using HTRF technology (Homogeneous Time Resolved Fluorescence; Cisbio) as per vendor instructions. Briefly, 10 uL CAMP-d2 conjugate and 10 uL anti-CAMP-cryptate conjugate in lysis buffer were incubated with the treated cells at room temperature for 60 min. The HTRF signal was immediately detected using an Envision plate reader (Perkin-Elmer) to calculate the ratio of fluorescence at 665 to 620 nm.
Raw fluorescence data for concentration curves of the peptides in Table 2 and Table 3 were converted to cAMP amount (pmol/well) using a cAMP standard curve generated for each experiment.

SMILES | EC50 [1] [pM] | EC50 [2] [pM]
CC[C@H](C)[C@H](NC(C)=O)C(=O)N[C@H](C(=O)N[C@H](C(=O)N[C@@H](CO)C(=O)N[C@@](C)(CC(C)C)C(=O)N[C@@H](CC(=O)O)C(=O)N[C@@H](C(=O)N1CCC[C@H]1C(=O)N[C@H](C(=O)NCC(=O)N[C@@](C)(CC(C)C)C(=O)N[C@@H](CC(C)C)C(=O)N[C@@H](CCC(N)=O)C(=O)N[C@H](C(=O)N[C@@H](CCCCN)C(=O)N[C@@H](CC(C)C)C(=O)N[C@@H](CCC(=O)O)C(=O)N[C@@H](CCC(N)=O)C(=O)N[C@@H](CCC(=O)O)C(=O)N[C@@H](CCCNC(=N)N)C(=O)N[C@@H](C)C(=O)N[C@@H](CCC(=O)O)C(=O)N[C@@H](CCCCN)C(=O)N[C@@H](C)C(=O)N[C@@H](CCCNC(=N)N)C(=O)N[C@@H](CCC(N)=O)C(=O)N[C@@H](CCC(N)=O)C(=O)N[C@@H](C)C(=O)N[C@@H](CCCCNC(=O)[C@@H](N)CCCCNC(=O)COCCOCCNC(=O)CC[C@H](NC(=O)CCCCCCCCCCCCCCCCCCC(=O)O)C(=O)O)C(=O)N[C@@H](CCC(=O)O)C(=O)N[C@@H](CC(N)=O)C(=O)N[C@H](C(=O)N[C@@H](CCC(=O)O)C(=O)N[C@H](C(=O)N[C@@H](CC(C)C)C(=O)N[C@@H](C)C(=O)N[C@@H](CCC(N)=O)C(=O)N[C@H](C(N)=O)C(C)C)[C@@H](C)CC)[C@@H](C)O)[C@@H](C)CC)[C@@H](C)O)C(C)C)[C@@H](C)O)C(C)C [SEQ ID NO: 34, Ac-IVTS αMeL D (D-Val) PTG αMeL LQIKLEQERAEKARQQAK(ϵK-(2-[2-(2-Amino-ethoxy)-ethoxy]-acetyl)-γE-CO-(CH2)18-CO2H)ENTEILAQV-NH2] (Ac-IVTS[αMeL]D[dV]PTG[αMeL]LQIKLEQERAEKARQQAK([εLys-AEEA-γGlu-C20 diacid])ENTEILAQV-NH2) | 4.9 ± 0.7 | > 1e+07
CC[C@H](C)[C@H](NC(C)=O)C(=O)N[C@H](C(=O)N[C@H](C(=O)N[C@@H](CO)C(=O)N[C@@](C)(CC(C)C)C(=O)N[C@@H](CC(=O)O)C(=O)N[C@@H](C(=O)N1CCC[C@H]1C(=O)N[C@H](C(=O)NCC(=O)N[C@@](C)(CC(C)C)C(=O)N[C@@H](CC(C)C)C(=O)N[C@@H](CCC(N)=O)C(=O)N[C@H](C(=O)N[C@@H](CCCCN)C(=O)N[C@@H](CC(C)C)C(=O)N[C@@H](CCC(=O)O)C(=O)N[C@@H](CCC(N)=O)C(=O)N[C@@H](CCC(=O)O)C(=O)N[C@@H](CCCNC(=N)N)C(=O)N[C@@H](C)C(=O)N[C@@H](CCC(=O)O)C(=O)N[C@@H](CCCCN)C(=O)N[C@@H](C)C(=O)N[C@@H](CCCNC(=N)N)C(=O)N[C@@H](CCC(N)=O)C(=O)N[C@@H](CCC(N)=O)C(=O)N[C@@H](C)C(=O)N[C@@H](CCCCNC(=O)CC[C@H](NC(=O)CC[C@H](NC(=O)[C@@H](N)CCCCNC(=O)CCCCCCCCCCCCCCCCCCC(=O)O)C(=O)O)C(=O)O)C(=O)N[C@@H](CCC(=O)O)C(=O)N[C@@H](CC(N)=O)C(=O)N[C@H](C(=O)N[C@@H](CCC(=O)O)C(=O)N[C@H](C(=O)N[C@@H](CC(C)C)C(=O)N[C@@H](C)C(=O)N[C@@H](CCC(N)=O)C(=O)N[C@H](C(N)=O)C(C)C)[C@@H](C)CC)[C@@H](C)O)[C@@H](C)CC)[C@@H](C)O)C(C)C)[C@@H](C)O)C(C)C [SEQ ID NO: 38, Ac-IVTS αMeL D (D-Val) PTG αMeL LQIKLEQERAEKARQQAK(γE-γE-ϵK-CO-(CH2)18-CO2H)ENTEILAQV-NH2] (Ac-IVTS[αMeL]D[dV]PTG[αMeL]LQIKLEQERAEKARQQAK([γGlu-γGlu-εLys-C20 diacid])ENTEILAQV-NH2) | 6.3 ± 2.1 | 1.1e+06
CC[C@H](C)[C@H](NC(C)=O)C(=O)N[C@H](C(=O)N[C@H](C(=O)N[C@@H](CO)C(=O)N[C@@](C)(CC(C)C)C(=O)N[C@@H](CC(=O)O)C(=O)N[C@@H](C(=O)N1CCC[C@H]1C(=O)N[C@H](C(=O)NCC(=O)N[C@@](C)(CC(C)C)C(=O)N[C@@H](CC(C)C)C(=O)N[C@@H](CCC(N)=O)C(=O)N[C@H](C(=O)N[C@@H](CCCCN)C(=O)N[C@@H](CC(C)C)C(=O)N[C@@H](CCC(=O)O)C(=O)N[C@@H](CCC(N)=O)C(=O)N[C@@H](CCC(=O)O)C(=O)N[C@@H](CCCNC(=N)N)C(=O)N[C@@H](C)C(=O)N[C@@H](CCC(=O)O)C(=O)N[C@@H](CCCCN)C(=O)N[C@@H](C)C(=O)N[C@@H](CCCNC(=N)N)C(=O)N[C@@H](CCC(N)=O)C(=O)N[C@@H](CCC(N)=O)C(=O)N[C@@H](C)C(=O)N[C@@H](CCCCNC(=O)CC[C@H](NC(=O)[C@@H](N)CCCCNC(=O)CC[C@H](NC(=O)CCCCCCCCCCCCCCCCCCC(=O)O)C(=O)O)C(=O)O)C(=O)N[C@@H](CCC(=O)O)C(=O)N[C@@H](CC(N)=O)C(=O)N[C@H](C(=O)N[C@@H](CCC(=O)O)C(=O)N[C@H](C(=O)N[C@@H](CC(C)C)C(=O)N[C@@H](C)C(=O)N[C@@H](CCC(N)=O)C(=O)N[C@H](C(N)=O)C(C)C)[C@@H](C)CC)[C@@H](C)O)[C@@H](C)CC)[C@@H](C)O)C(C)C)[C@@H](C)O)C(C)C [SEQ ID NO: 39, Ac-IVTS αMeL D (D-Val) PTG αMeL LQIKLEQERAEKARQQAK(γE-ϵK-γE-CO-(CH2)18-CO2H)ENTEILAQV-NH2] (Ac-IVTS[αMeL]D[dV]PTG[αMeL]LQIKLEQERAEKARQQAK([γGlu-εLys-γGlu-C20 diacid])ENTEILAQV-NH2) | 7.3 ± 0.8 | 3.7e+06
